Measurements published in PubChem BioAssay AID1963962 (Molecular Pharmacology Branch, DTP, NCI, 2024).

System: 967376-340-R-J2-PDC multicell spheroid viability
Test: Anticancer human tumor 967376-340-R-J2-PDC patient-derived colon adenocarcinoma cell line growth inhibition [PI3K]
Settings: for IC50: curve of first compound; for viability, T/C: stronger effect = lower value; active = viability on the fitted dose curve at most 10% of control; inactive = the rest
In short: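 Tumor cells were combined with HUVEC and MSCs into spheroids, then dosed with PI3K-inhibitor combinations over half-log ranges capped near clinical Cmax or 10 microM.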

[1] = second compound 0.00316 µM, first compound 0.0316 µM
[2] = second compound 0.00316 µM, first compound 0.1 µM
[3] = second compound 0.00316 µM, first compound 0.316 µM
[4] = second compound 0.00316 µM, first compound 1 µM
[5] = second compound 0.00316 µM, first compound 3.16 µM
[6] = second compound 0.00316 µM, first compound 10 µM
[7] = second compound 0.01 µM, first compound 0.0316 µM
[8] = second compound 0.01 µM, first compound 0.1 µM
[9] = second compound 0.01 µM, first compound 0.316 µM
[10] = second compound 0.01 µM, first compound 1 µM
[11] = second compound 0.01 µM, first compound 3.16 µM
[12] = second compound 0.01 µM, first compound 10 µM
[13] = second compound 0.0316 µM, first compound 0.0316 µM
[14] = second compound 0.0316 µM, first compound 0.1 µM
[15] = second compound 0.0316 µM, first compound 0.316 µM
[16] = second compound 0.0316 µM, first compound 1 µM
[17] = second compound 0.0316 µM, first compound 3.16 µM
[18] = second compound 0.0316 µM, first compound 10 µM
[19] = second compound 0.1 µM, first compound 0.0316 µM
[20] = second compound 0.1 µM, first compound 0.1 µM
[21] = second compound 0.1 µM, first compound 0.316 µM
[22] = second compound 0.1 µM, first compound 1 µM
[23] = second compound 0.1 µM, first compound 3.16 µM
[24] = second compound 0.1 µM, first compound 10 µM
[25] = second compound 0.316 µM, first compound 0.0316 µM
[26] = second compound 0.316 µM, first compound 0.1 µM
[27] = second compound 0.316 µM, first compound 0.316 µM
[28] = second compound 0.316 µM, first compound 1 µM
[29] = second compound 0.316 µM, first compound 3.16 µM
[30] = second compound 0.316 µM, first compound 10 µM
[31] = second compound 1 µM, first compound 0.0316 µM
[32] = second compound 1 µM, first compound 0.1 µM
[33] = second compound 1 µM, first compound 0.316 µM
[34] = second compound 1 µM, first compound 1 µM
[35] = second compound 1 µM, first compound 3.16 µM
[36] = second compound 1 µM, first compound 10 µM
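Also: spheroids exposed to agents for 7 days before read-out.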
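For viability, T/C in this document: luminescence used as surrogate of cell viability.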

CC1(C)CCC(CN2CCN(c3ccc(C(=O)NS(=O)(=O)c4ccc(NCC5CCOCC5)c([N+](=O)[O-])c4)c(Oc4cnc5[nH]ccc5c4)c3)CC2)=C(c2ccc(Cl)cc2)C1 + COc1c(OCCCN2CCOCC2)ccc2c3n(c(=NC(=O)c4cnc(N)nc4)nc12)CCN3
7860 nM: IC50 (second compound 0.0316 µM)
inactive: viability, T/C [1] 92.6% | viability, T/C [2] 82% | viability, T/C [3] 94.8% | viability, T/C [4] 108% | viability, T/C [5] 81.6% | viability, T/C [6] 64.3% | viability, T/C [7] 83.2% | viability, T/C [8] 87.6% | viability, T/C [9] 82.9% | viability, T/C [10] 75.8% | viability, T/C [11] 76.4% | viability, T/C [12] 55.8% | viability, T/C [13] 76.9% | viability, T/C [14] 73.6% | viability, T/C [15] 63.6% | viability, T/C [16] 67.2% | viability, T/C [17] 62.6% | viability, T/C [18] 46.1% | viability, T/C [19] 56.6% | viability, T/C [20] 67% | viability, T/C [21] 44.2% | viability, T/C [22] 48.5% | viability, T/C [23] 54.6% | viability, T/C [24] 39.5% | viability, T/C [25] 35.4% | viability, T/C [26] 44.6% | viability, T/C [27] 31.2% | viability, T/C [28] 40% | viability, T/C [29] 37.4% | viability, T/C [30] 21.4% | viability, T/C [31] 48.5% | viability, T/C [32] 28.9% | viability, T/C [33] 35.2% | viability, T/C [34] 24.8% | viability, T/C [35] 30.9% | viability, T/C [36] 27.8%
> 10000 nM: IC50 (second compound 0.00316 µM) | IC50 (second compound 0.01 µM)
1200 nM: IC50 (second compound 0.1 µM)
< 31.6 nM: IC50 (second compound 0.316 µM) | IC50 (second compound 1 µM)

C[C@@H](NC(=O)c1ncnc(N)c1Cl)c1ncc(C(=O)Nc2cc(C(F)(F)F)c(Cl)cn2)s1 + COc1c(OCCCN2CCOCC2)ccc2c3n(c(=NC(=O)c4cnc(N)nc4)nc12)CCN3
> 10000 nM: IC50 (second compound 0.00316 µM) | IC50 (second compound 0.01 µM) | IC50 (second compound 0.0316 µM) | IC50 (second compound 0.1 µM)
< 31.6 nM: IC50 (second compound 0.316 µM) | IC50 (second compound 1 µM)
inactive: viability, T/C [1] 94.3% | viability, T/C [2] 86.9% | viability, T/C [3] 80.6% | viability, T/C [4] 89.7% | viability, T/C [5] 120% | viability, T/C [6] 123% | viability, T/C [7] 93.2% | viability, T/C [8] 84.5% | viability, T/C [9] 91.9% | viability, T/C [10] 100% | viability, T/C [11] 112% | viability, T/C [12] 91.3% | viability, T/C [13] 67.7% | viability, T/C [14] 77.1% | viability, T/C [15] 71.9% | viability, T/C [16] 63% | viability, T/C [17] 93.3% | viability, T/C [18] 107% | viability, T/C [19] 66.6% | viability, T/C [20] 51.5% | viability, T/C [21] 70.1% | viability, T/C [22] 62.7% | viability, T/C [23] 62.8% | viability, T/C [24] 70.2% | viability, T/C [25] 49% | viability, T/C [26] 49.6% | viability, T/C [27] 49.2% | viability, T/C [28] 43.2% | viability, T/C [29] 56.6% | viability, T/C [30] 62.6% | viability, T/C [31] 43% | viability, T/C [32] 33% | viability, T/C [33] 38.5% | viability, T/C [34] 38.1% | viability, T/C [35] 45.7% | viability, T/C [36] 45%

Cn1ncnc1[C@H]1c2n[nH]c(=O)c3cc(F)cc(c23)N[C@@H]1c1ccc(F)cc1 + COc1c(OCCCN2CCOCC2)ccc2c3n(c(=NC(=O)c4cnc(N)nc4)nc12)CCN3
< 0.316 nM: IC50 (second compound 0.316 µM) | IC50 (second compound 1 µM)
> 100 nM: IC50 (second compound 0.00316 µM) | IC50 (second compound 0.01 µM) | IC50 (second compound 0.0316 µM) | IC50 (second compound 0.1 µM)
inactive: viability, T/C (second compound 0.00316 µM, first compound 0.000316 µM) 102% | viability, T/C (second compound 0.00316 µM, first compound 0.001 µM) 95% | viability, T/C (second compound 0.00316 µM, first compound 0.00316 µM) 76.1% | viability, T/C (second compound 0.00316 µM, first compound 0.01 µM) 97% | viability, T/C [1] 88.7% | viability, T/C [2] 105% | viability, T/C (second compound 0.01 µM, first compound 0.000316 µM) 76.6% | viability, T/C (second compound 0.01 µM, first compound 0.001 µM) 94.9% | viability, T/C (second compound 0.01 µM, first compound 0.00316 µM) 81.1% | viability, T/C (second compound 0.01 µM, first compound 0.01 µM) 73.9% | viability, T/C [7] 80.5% | viability, T/C [8] 87.9% | viability, T/C (second compound 0.0316 µM, first compound 0.000316 µM) 85.2% | viability, T/C (second compound 0.0316 µM, first compound 0.001 µM) 90.4% | viability, T/C (second compound 0.0316 µM, first compound 0.00316 µM) 74.5% | viability, T/C (second compound 0.0316 µM, first compound 0.01 µM) 70.9% | viability, T/C [13] 66.8% | viability, T/C [14] 73.4% | viability, T/C (second compound 0.1 µM, first compound 0.000316 µM) 53.3% | viability, T/C (second compound 0.1 µM, first compound 0.001 µM) 70.4% | viability, T/C (second compound 0.1 µM, first compound 0.00316 µM) 56.5% | viability, T/C (second compound 0.1 µM, first compound 0.01 µM) 53.5% | viability, T/C [19] 62.5% | viability, T/C [20] 56.4% | viability, T/C (second compound 0.316 µM, first compound 0.000316 µM) 42.1% | viability, T/C (second compound 0.316 µM, first compound 0.001 µM) 40.9% | viability, T/C (second compound 0.316 µM, first compound 0.00316 µM) 44.6% | viability, T/C (second compound 0.316 µM, first compound 0.01 µM) 36.2% | viability, T/C [25] 52.7% | viability, T/C [26] 43.2% | viability, T/C (second compound 1 µM, first compound 0.000316 µM) 27.8% | viability, T/C (second compound 1 µM, first compound 0.001 µM) 26.8% | viability, T/C (second compound 1 µM, first compound 0.00316 µM) 39.8% | viability, T/C (second compound 1 µM, first compound 0.01 µM) 55.2% | viability, T/C [31] 32.9% | viability, T/C [32] 26.9%
